Where “and” joins values, the source holds several entries; their conditions need not be identical. Identical values can stand only once. Counter-ions that a name gives are not always drawn.
Key:
[1] = tested on: Staphylococcus aureus MW2 (mecA+); experiment: IC50 (growth, competition assay); conditions: cefoxitin: subinhibitory
In short: (§1)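 Pre-induced, 1:1-mixed fluorescent S. aureus MW2 mecA+ and ΔmecA strains were grown 20 h at 37 °C, 90% humidity, unshaken, in LB with a daily-set subinhibitory cefoxitin dose, in 1536-well plates. Compounds were given on five- or nine-point 2-fold gradients, in two dye-swapped replicates. DsRed (540/590) and GFP (485/520) were scaled per plate between single-strain control medians, with No Treatment then set to 0.5. Per-strain IC50 was the dose halving the No Treatment signal, or the maximal signal.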

[2] = tested on: Staphylococcus aureus MW2 delta-mecA (mecA-); experiment: IC50 (growth, competition assay); conditions: cefoxitin: subinhibitory
In short: as §1

| Compound | IC50 ([1]; fluorescent label: DsRed) [µM] | IC50 ([1]; fluorescent label: GFP) | IC50 ([2]; fluorescent label: DsRed) [µM] | IC50 ([2]; fluorescent label: GFP) [µM] |
| --- | --- | --- | --- | --- |
| COC1=C(OC)C(=O)C(CCCCCCCCCCO)=C(C)C1=O [IDEBENONE] | 22.8 | 28.8 µM | 15.5 | 15 |
| CC1(C)S[C@@H]2[C@H](NC(=O)C(C(=O)O)c3ccccc3)C(=O)N2[C@H]1C(=O)O (stereo partly drawn) [CARBECIN] | 23.7 | 36.6 µM | < 9.85 | < 9.85 |
| CN[C@H](CC(C)C)C(=O)N[C@H]1C(=O)N[C@@H](CC(N)=O)C(=O)N[C@H]2C(=O)N[C@H]3C(=O)N[C@H](C(=O)N[C@H](C(=O)O)c4cc(O)cc(O)c4-c4cc3ccc4O)[C@H](O)c3ccc(c(Cl)c3)Oc3cc2cc(c3O[C@@H]2O[C@H](CO)[C@@H](O)[C@H](O)[C@H]2O[C@H]2C[C@](C)(N)[C@H](O)[C@H](C)O2)Oc2ccc(cc2Cl)[C@H]1O [Vancomycin HCl (Vancocin)] | < 9.85 | < 9.85 µM | < 9.85 | < 9.85 |
| N[C@@H](C(=O)N[C@@H]1C(=O)N2C(C(=O)O)=C(Cl)CS[C@H]12)c1ccccc1 [CECLOR] | 87.9 | 87.8 µM | < 9.85 | < 9.85 |
| CC[C@@H](C(=O)O)[C@@H]1O[C@@H]([C@@H](C)[C@H](O)[C@H](C)C(=O)[C@H](CC)[C@H]2O[C@]3(C=C[C@@H](O)[C@]4(CC[C@@](C)([C@H]5CC[C@](O)(CC)[C@H](C)O5)O4)O3)[C@H](C)C[C@@H]2C)[C@@H](C)C[C@@H]1C [NARASIN] | < 9.85 | < 9.85 µM | < 9.85 | < 9.85 |
| CC/C(=C(\c1ccccc1)c1ccc(OCCN(C)C)cc1)c1ccccc1 [Tamoxifen] | 14.8 | 14.9 µM | 12.2 | < 9.85 |
| c1ccc2c(CCNc3ccc(Nc4ccncc4)cc3)c[nH]c2c1 | 104 | 138 µM | 61 | 37.1 |
| Nc1nc(/C(=C/CC(=O)O)C(=O)N[C@@H]2C(=O)N3C(C(=O)O)=CCS[C@H]23)cs1 [CEDAX] | 18.2 | 18.9 µM | < 9.85 | < 9.85 |
| CC[C@H](C)C(=O)O[C@H]1C[C@H](O)C=C2C=C[C@H](C)[C@H](CC[C@@H](O)C[C@@H](O)CC(=O)O)[C@H]21 [Pravastatin sodium] | 28.8 | 27.8 µM | < 9.85 | < 9.85 |
| CC[C@H]1OC(=O)[C@H](C)C(=O)[C@H](C)[C@@H](O[C@@H]2O[C@H](C)C[C@H](N(C)C)[C@H]2O)[C@](C)(OC)C[C@@H](C)C(=O)[C@H](C)[C@H]2N(CCCCn3cnc(-c4cccnc4)c3)C(=O)O[C@]12C [KETEK] | < 9.85 | < 9.85 µM | < 9.85 | < 9.85 |
| CN1CCN(CCCN2c3ccccc3Sc3ccc(C(F)(F)F)cc32)CC1 [STELAZINE] | 55 | 55.8 µM | 18.1 | 15.9 |
| C[C@H]1c2cccc(O)c2C(=O)C2=C(O)[C@]3(O)C(=O)C(C(N)=O)=C(O)[C@@H](N(C)C)[C@@H]3[C@@H](O)[C@@H]21 [Doxycycline HCl] | < 9.85 | < 9.85 µM | < 9.85 | < 9.85 |
| O=C1NC(=O)/C(=C/c2ccc(-c3ccc(F)cc3O)o2)S1 | < 9.85 | < 9.85 µM and 13.8 µM | < 9.85 | < 9.85 |
| CCN(CC)CCOc1ccc(C(=C(Cl)c2ccccc2)c2ccccc2)cc1 [Clomifene citrate (Serophene)] | 15 | 14.9 µM | < 9.85 | < 9.85 |
| CCC(=O)Nc1cccc(Oc2nc(Nc3ccc(N4CCN(C)CC4)cc3OC)ncc2Cl)c1 [WZ4003] | > 150 | > 150 µM | > 150 | > 150 |
| C[C@H]1COC2=C1C(=O)C(=O)c1c2ccc2c1CCCC2(C)C [CRYPTOTANSHINONE] | 13 | 15.7 µM | 11.3 | 10.5 |
| C=C(NC(=O)C(=C)NC(=O)c1csc(C2=N[C@@H]3c4csc(n4)[C@H]4NC(=O)c5csc(n5)[C@H]([C@](C)(O)[C@@H](C)O)NC(=O)[C@H]5CSC(=N5)/C(=C/C)NC(=O)[C@H]([C@@H](C)O)NC(=O)c5csc(n5)[C@]3(CC2)NC(=O)[C@H](C)NC(=O)C(=C)NC(=O)[C@H](C)NC(=O)[C@H]([C@@H](C)CC)N[C@@H]2C=Cc3c([C@H](C)O)cc(nc3[C@H]2O)C(=O)O[C@@H]4C)n1)C(N)=O [BRYAMYCIN] | < 9.85 | < 9.85 µM | < 9.85 | < 9.85 |
